The values below come from ChEMBL document CHEMBL3352819, “Structure-based optimization and biological evaluation of trisubstituted pyrazole as a core structure of potent ROS1 kinase inhibitors” (Bioorg Med Chem, 2014).

The target in experiment [1] is Proto-oncogene tyrosine-protein kinase ROS (Homo sapiens, UniProt P08922). Nature of the experiment: Inhibition of ROS1 (unknown origin) assessed as remaining activity.
For experiment [2], the target named is Tyrosine-protein kinase JAK2 (Homo sapiens) (UniProt O60674). Put plainly: Inhibition of JAK2 (unknown origin) assessed as residual activity at 10 uM relative to control.
Experiment [3] relates to Phosphatidylinositol 4,5-bisphosphate 3-kinase catalytic subunit alpha isoform (Homo sapiens), P42336 [E542K]. Put plainly: Inhibition of PIK3CA E542K mutant (unknown origin) assessed as residual activity at 10 uM relative to control.
The target in experiment [4] is Leukocyte tyrosine kinase receptor (Homo sapiens) (UniProt P29376). Nature of the experiment: Inhibition of LTK (unknown origin) assessed as residual activity at 10 uM relative to control.
Experiment [5] addresses Phosphatidylinositol 4,5-bisphosphate 3-kinase catalytic subunit alpha isoform (Homo sapiens) (UniProt P42336). Nature of the experiment: Inhibition of PIK3CA (unknown origin) assessed as residual activity at 10 uM relative to control.
In experiment [6] the target is Phosphatidylinositol 4,5-bisphosphate 3-kinase catalytic subunit delta isoform (Homo sapiens) (UniProt O00329). Nature of the experiment: Inhibition of PIK3CD (unknown origin) assessed as residual activity at 10 uM relative to control.
Experiment [7] is filed under the species Homo sapiens. Nature of the experiment: Inhibition of ULK (unknown origin) assessed as residual activity at 10 uM relative to control.
In experiment [8] the target is Aurora kinase A (Homo sapiens) (UniProt O14965). Put plainly: Inhibition of aurora A kinase (unknown origin) assessed as residual activity at 10 uM relative to control.
Experiment [9] deals with Serine/threonine-protein kinase PLK4 (Homo sapiens) (UniProt O00444). Nature of the experiment: Inhibition of PLK4 (unknown origin) assessed as residual activity at 10 uM relative to control.
Experiment [10] concerns the target AP2-associated protein kinase 1 (Homo sapiens) (UniProt Q2M2I8). Nature of the experiment: Inhibition of AAK1 (unknown origin) assessed as residual activity at 10 uM relative to control.
Experiment [11] addresses Tyrosine-protein kinase HCK (Homo sapiens) (UniProt P08631). Put plainly: Inhibition of HCK (unknown origin) assessed as residual activity at 10 uM relative to control.
The target in experiment [12] is Phosphatidylinositol 4,5-bisphosphate 3-kinase catalytic subunit beta isoform (Homo sapiens) (UniProt P42338). Nature of the experiment: Inhibition of PIK3CB (unknown origin) assessed as residual activity at 10 uM relative to control.
For experiment [13], the target named is Ephrin type-B receptor 6 (Homo sapiens) (UniProt O15197). Nature of the experiment: Inhibition of EPHB6 (unknown origin) assessed as residual activity at 10 uM relative to control.
Experiment [14] concerns the target BMP-2-inducible protein kinase (Homo sapiens) (UniProt Q9NSY1). Put plainly: Inhibition of BIKE (unknown origin) assessed as residual activity at 10 uM relative to control.
Experiment [15] has as its target Tyrosine-protein kinase Blk (Homo sapiens) (UniProt P51451). Put plainly: Inhibition of BLK (unknown origin) assessed as residual activity at 10 uM relative to control.
Experiment [16] addresses Mitogen-activated protein kinase kinase kinase 20 (Homo sapiens) (UniProt Q9NYL2). Nature of the experiment: Inhibition of ZAK (unknown origin) assessed as residual activity at 10 uM relative to control.
Experiment [17] has as its target Mast/stem cell growth factor receptor Kit (Homo sapiens) (UniProt P10721). Put plainly: Inhibition of KIT (unknown origin) assessed as residual activity at 10 uM relative to control.
In experiment [18] the target is ALK tyrosine kinase receptor (Homo sapiens) (UniProt Q9UM73). Put plainly: Inhibition of ALK (unknown origin) assessed as residual activity at 20 uM relative to control.
In experiment [19] the target is Proto-oncogene tyrosine-protein kinase Src (Homo sapiens) (UniProt P12931). Put plainly: Inhibition of SRC (unknown origin) assessed as residual activity at 10 uM relative to control.
For experiment [20], the target named is Atypical kinase COQ8A, mitochondrial (Homo sapiens) (UniProt Q8NI60). Nature of the experiment: Inhibition of ADCK3 (unknown origin) assessed as residual activity at 10 uM relative to control.
Experiment [21] concerns the target Serine/threonine-protein kinase RIO2 (Homo sapiens) (UniProt Q9BVS4). Nature of the experiment: Inhibition of RIOK2 (unknown origin) assessed as residual activity at 10 uM relative to control.
Experiment [22] deals with Tyrosine-protein kinase TXK (Homo sapiens) (UniProt P42681). Put plainly: Inhibition of TXK (unknown origin) assessed as residual activity at 10 uM relative to control.
For experiment [23], the target named is Non-receptor tyrosine-protein kinase TNK1 (Homo sapiens) (UniProt Q13470). Put plainly: Inhibition of TNK1 (unknown origin) assessed as residual activity at 10 uM relative to control.
Experiment [24] concerns Serine/threonine-protein kinase B-raf (Homo sapiens), P15056 [V600E]. Nature of the experiment: Inhibition of BRAF V600E mutant (unknown origin) assessed as residual activity at 10 uM relative to control.
Experiment [25] deals with Receptor-type tyrosine-protein kinase FLT3 (Homo sapiens) (UniProt P36888). Nature of the experiment: Inhibition of FLT3 (unknown origin) assessed as residual activity at 10 uM relative to control.
Experiment [26] addresses Phosphatidylinositol 4-phosphate 3-kinase C2 domain-containing subunit beta (Homo sapiens) (UniProt O00750). Put plainly: Inhibition of PIK3C2B (unknown origin) assessed as residual activity at 10 uM relative to control.
Experiment [27] addresses Serine/threonine-protein kinase B-raf (Homo sapiens) (UniProt P15056). Put plainly: Inhibition of BRAF (unknown origin) assessed as residual activity at 10 uM relative to control.
The target of experiment [28] is Hepatocyte growth factor receptor (Homo sapiens) (UniProt P08581). Put plainly: Inhibition of c-MET (unknown origin) assessed as residual activity at 20 uM relative to control.
In experiment [29] the target is Non-receptor tyrosine-protein kinase TYK2 (Homo sapiens) (UniProt P29597). Nature of the experiment: Inhibition of TYK2 JH1 domain catalytic (unknown origin) assessed as residual activity at 10 uM relative to control.
The test system of experiment [30] is Receptor-type tyrosine-protein kinase FLT3 (Homo sapiens), P36888 [N841I]. Put plainly: Inhibition of FLT3 N841I mutant (unknown origin) assessed as residual activity at 10 uM relative to control.

Each structure is given as a SMILES string.

Proto-oncogene tyrosine-protein kinase ROS, sequence (P08922 whole entry): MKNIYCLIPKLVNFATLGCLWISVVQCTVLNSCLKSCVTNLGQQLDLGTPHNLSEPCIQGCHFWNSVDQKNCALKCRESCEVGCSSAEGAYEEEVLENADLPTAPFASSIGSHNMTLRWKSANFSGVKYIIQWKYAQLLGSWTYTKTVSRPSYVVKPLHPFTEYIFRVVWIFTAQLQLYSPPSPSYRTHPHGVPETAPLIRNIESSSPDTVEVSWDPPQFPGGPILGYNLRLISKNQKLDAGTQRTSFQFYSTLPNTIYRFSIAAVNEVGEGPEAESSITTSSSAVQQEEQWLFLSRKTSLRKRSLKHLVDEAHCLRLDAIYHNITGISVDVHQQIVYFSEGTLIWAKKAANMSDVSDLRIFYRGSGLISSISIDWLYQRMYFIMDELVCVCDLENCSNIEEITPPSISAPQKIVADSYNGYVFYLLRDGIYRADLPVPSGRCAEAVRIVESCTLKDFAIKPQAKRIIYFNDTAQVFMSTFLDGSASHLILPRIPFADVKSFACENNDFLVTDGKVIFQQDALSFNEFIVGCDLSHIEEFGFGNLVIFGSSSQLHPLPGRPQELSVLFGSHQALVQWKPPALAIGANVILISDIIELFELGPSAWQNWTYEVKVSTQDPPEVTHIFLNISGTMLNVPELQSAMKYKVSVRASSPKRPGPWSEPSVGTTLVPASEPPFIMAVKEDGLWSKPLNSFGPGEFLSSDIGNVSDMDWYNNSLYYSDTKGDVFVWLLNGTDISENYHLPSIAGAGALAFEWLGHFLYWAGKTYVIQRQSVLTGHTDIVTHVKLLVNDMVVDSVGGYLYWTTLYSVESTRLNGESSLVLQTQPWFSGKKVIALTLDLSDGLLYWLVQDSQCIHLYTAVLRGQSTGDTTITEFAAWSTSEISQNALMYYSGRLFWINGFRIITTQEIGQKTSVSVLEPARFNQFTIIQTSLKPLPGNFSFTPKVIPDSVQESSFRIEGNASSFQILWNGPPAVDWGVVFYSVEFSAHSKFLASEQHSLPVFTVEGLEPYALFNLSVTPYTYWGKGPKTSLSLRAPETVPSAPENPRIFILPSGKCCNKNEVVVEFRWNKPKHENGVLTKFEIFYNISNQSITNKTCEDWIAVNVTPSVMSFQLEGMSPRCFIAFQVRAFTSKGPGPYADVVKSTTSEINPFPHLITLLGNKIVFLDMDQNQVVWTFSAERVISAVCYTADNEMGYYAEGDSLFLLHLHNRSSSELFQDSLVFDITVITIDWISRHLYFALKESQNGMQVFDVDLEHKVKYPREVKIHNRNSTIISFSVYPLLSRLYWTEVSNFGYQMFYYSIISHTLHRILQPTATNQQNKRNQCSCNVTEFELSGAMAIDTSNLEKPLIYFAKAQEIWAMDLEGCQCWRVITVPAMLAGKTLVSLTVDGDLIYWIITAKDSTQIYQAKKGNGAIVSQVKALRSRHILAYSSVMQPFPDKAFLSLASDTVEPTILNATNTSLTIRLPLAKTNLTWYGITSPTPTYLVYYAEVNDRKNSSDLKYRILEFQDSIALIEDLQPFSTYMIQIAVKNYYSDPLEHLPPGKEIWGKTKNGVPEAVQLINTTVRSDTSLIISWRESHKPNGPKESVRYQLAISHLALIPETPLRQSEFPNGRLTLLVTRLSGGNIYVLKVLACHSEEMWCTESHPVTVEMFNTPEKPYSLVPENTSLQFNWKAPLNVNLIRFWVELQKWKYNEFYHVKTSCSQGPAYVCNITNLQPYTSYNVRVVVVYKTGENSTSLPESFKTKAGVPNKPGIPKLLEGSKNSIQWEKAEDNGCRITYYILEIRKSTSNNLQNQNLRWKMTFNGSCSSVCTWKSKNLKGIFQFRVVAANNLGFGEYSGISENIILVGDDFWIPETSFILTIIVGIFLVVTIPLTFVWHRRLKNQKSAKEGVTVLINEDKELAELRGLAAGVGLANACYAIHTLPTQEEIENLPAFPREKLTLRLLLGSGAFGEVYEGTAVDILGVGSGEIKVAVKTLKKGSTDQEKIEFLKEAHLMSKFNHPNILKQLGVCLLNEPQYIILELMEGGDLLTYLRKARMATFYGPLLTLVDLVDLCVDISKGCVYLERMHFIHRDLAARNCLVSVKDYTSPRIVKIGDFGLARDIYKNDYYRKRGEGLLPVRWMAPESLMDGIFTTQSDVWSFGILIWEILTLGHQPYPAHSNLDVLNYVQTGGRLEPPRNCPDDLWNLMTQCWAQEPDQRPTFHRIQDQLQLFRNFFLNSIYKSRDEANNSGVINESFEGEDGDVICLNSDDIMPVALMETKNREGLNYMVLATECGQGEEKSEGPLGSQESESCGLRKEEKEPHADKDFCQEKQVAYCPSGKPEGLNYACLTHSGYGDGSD
Tyrosine-protein kinase TXK (Homo sapiens), sequence (P42681 whole entry): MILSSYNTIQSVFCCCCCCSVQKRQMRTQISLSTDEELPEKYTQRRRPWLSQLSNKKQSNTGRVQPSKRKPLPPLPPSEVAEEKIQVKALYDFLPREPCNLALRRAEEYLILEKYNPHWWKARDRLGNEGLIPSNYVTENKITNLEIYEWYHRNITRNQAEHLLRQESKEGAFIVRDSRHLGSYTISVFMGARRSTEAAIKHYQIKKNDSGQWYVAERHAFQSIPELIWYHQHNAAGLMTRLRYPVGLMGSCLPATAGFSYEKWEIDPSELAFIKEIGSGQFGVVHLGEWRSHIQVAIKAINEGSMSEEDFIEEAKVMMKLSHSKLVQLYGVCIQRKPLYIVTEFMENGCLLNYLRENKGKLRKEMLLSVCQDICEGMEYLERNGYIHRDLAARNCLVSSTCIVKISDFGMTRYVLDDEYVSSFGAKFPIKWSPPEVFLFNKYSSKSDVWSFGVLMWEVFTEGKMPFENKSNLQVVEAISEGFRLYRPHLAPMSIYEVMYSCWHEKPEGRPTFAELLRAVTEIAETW
Atypical kinase COQ8A, mitochondrial (Homo sapiens), sequence (Q8NI60 163-647 limits assumed): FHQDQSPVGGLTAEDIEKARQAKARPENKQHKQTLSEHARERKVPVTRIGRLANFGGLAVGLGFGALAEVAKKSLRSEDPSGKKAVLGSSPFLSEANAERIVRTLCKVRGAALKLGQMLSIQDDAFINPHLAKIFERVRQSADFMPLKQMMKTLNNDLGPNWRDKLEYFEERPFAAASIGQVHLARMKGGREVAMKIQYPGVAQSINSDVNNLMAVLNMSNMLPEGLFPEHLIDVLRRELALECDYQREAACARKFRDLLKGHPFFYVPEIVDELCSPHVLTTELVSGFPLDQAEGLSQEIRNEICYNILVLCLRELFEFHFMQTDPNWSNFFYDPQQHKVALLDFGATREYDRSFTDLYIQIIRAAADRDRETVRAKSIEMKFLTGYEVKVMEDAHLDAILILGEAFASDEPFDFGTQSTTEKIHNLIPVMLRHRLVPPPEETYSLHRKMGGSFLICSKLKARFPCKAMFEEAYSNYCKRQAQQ
Phosphatidylinositol 4,5-bisphosphate 3-kinase catalytic subunit beta isoform (Homo sapiens), sequence (P42338 whole entry, looked up, canonical isoform): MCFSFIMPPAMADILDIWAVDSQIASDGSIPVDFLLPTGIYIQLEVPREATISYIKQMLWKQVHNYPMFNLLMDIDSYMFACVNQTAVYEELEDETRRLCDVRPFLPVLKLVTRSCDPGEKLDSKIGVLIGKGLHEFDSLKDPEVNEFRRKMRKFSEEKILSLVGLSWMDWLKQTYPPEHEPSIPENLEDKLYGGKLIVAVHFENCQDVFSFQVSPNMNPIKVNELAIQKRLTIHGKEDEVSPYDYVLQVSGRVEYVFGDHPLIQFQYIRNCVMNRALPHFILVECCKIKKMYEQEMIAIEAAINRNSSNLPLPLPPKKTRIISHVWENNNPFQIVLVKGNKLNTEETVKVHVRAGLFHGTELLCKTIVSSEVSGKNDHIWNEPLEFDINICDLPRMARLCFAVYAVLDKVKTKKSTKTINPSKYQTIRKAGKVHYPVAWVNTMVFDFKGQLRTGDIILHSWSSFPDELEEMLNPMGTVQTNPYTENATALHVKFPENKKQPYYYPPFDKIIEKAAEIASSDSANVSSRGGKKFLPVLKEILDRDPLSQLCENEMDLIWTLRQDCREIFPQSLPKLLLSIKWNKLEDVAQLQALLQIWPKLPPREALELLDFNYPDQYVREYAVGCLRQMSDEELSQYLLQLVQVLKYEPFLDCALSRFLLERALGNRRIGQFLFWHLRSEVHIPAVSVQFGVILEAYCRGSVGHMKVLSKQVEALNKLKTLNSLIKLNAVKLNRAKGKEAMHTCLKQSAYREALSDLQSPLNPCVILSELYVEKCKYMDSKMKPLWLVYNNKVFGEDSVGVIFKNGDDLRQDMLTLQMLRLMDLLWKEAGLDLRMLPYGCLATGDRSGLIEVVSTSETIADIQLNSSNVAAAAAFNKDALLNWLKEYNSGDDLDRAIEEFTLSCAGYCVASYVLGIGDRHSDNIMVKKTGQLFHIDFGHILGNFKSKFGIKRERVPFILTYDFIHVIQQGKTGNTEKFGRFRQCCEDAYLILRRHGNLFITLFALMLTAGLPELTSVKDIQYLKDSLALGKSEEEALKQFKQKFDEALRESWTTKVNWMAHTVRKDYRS
Tyrosine-protein kinase HCK (Homo sapiens), sequence (P08631 2-526 limits assumed): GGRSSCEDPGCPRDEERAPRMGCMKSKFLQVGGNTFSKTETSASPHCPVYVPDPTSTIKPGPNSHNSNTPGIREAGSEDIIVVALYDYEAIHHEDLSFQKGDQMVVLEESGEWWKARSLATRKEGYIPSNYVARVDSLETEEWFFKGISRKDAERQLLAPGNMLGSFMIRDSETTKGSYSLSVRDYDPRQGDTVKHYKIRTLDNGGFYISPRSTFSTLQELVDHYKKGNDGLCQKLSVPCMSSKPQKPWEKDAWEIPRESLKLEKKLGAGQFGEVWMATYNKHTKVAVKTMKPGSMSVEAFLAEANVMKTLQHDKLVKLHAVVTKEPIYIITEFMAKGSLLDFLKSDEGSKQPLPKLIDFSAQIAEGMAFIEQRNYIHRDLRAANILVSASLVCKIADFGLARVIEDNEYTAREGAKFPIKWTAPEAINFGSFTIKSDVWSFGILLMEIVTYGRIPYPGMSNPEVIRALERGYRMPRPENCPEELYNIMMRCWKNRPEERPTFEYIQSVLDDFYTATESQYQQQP

Turning to `COc1cc(C)cc(-c2c(-c3cc(NCCCCO)nc(-c4cccnc4)n3)cnn2C)c1`, the half-maximal inhibitory concentration (IC50) in [1] amounted to 138 nM.

As for `Cc1cc(O)cc(-c2c(-c3cc(N4CCOCC4)nc(-c4cccnc4)n3)cnn2C)c1`, in [1], the IC50 was found to be 91.5 nM.

With `COc1cc(C)cc(-c2c(-c3cc(N4CCOCC4)nc(-c4cccnc4)n3)cnn2C)c1`, the IC50 in [1] came out at 104 nM.

As for `Cc1cc(O)cc(-c2nn(C)cc2-c2cc(NC[C@H](C)O)nc(-c3cccnc3)n2)c1`, in experiment [1], the concentration for half-maximal inhibition (IC50) is 105 nM.

Consider `Cc1cc(O)cc(-c2c(-c3cc(NCCCCO)nc(-c4cccnc4)n3)cnn2C)c1`, for which the IC50 in [1] turned out to be 25.4 nM.

Turning to `COc1cc(C)cc(-c2nn(C)cc2-c2cc(NC[C@H](C)O)nc(-c3cccnc3)n2)c1`, in experiment [1], the IC50 is 241 nM.

For the molecule `COc1cc(C)cc(-c2c(-c3cc(N4CC(O)C4)nc(-c4cccnc4)n3)cnn2C)c1`, in [1], the IC50 amounted to 74.2 nM.

As for `COc1cc(C)cc(-c2nn(C)cc2-c2cc(NCCCCO)nc(-c3cccnc3)n2)c1`, the IC50 in experiment [1] amounted to 63.8 nM.

Turning to `Cc1cc(O)cc(-c2c(-c3cc(NC[C@H](C)O)nc(-c4cccnc4)n3)cnn2C)c1`, the IC50 in [1] was determined as 139 nM.

As for `COc1cc(C)cc(-c2c(-c3cc(NC[C@H](C)O)nc(-c4cccnc4)n3)cnn2C)c1`, the IC50 in experiment [1] was determined as 283 nM.

Take `Cc1cc(O)cc(-c2nn(C)cc2-c2cc(N3CCOCC3)nc(-c3cccnc3)n2)c1`: the Activity is 3% in experiment [2]; 14% in experiment [3]; 17% in [4]; 13% in [5]; 4.4% in experiment [6]; 71% in [7]. For the same molecule, the Activity in experiment [8] stood at 31%; in experiment [9], 6.8%; in experiment [10], 18%; in experiment [11], 28%; in [12] it was 7.2%; in [13], 4.2%. The Activity in experiment [14] was found to be 11%; in [15], 20%; in experiment [16] it was 92%; in [17], 20%; in [18] it was 31%; in experiment [19], 25%. Also, the Activity in experiment [20] worked out at 15%; in experiment [21], 10%; in experiment [22], 9.6%; in experiment [23], 9.2%; in [24] it was 18%; in experiment [25] it was 3%. Moreover, the Activity in [26] came out at 4%; in experiment [27], 30%; in [28], 51%; in [29], 2.6%; in experiment [30], 3.3%. Further, the IC50 in experiment [1] is 13.6 nM.

Take `Cc1cc(O)cc(-c2nn(C)cc2-c2cc(NCCCCO)nc(-c3cccnc3)n2)c1`: the concentration for half-maximal inhibition (IC50) in [1] turned out to be 133 nM.

Take `Cc1cc(O)cc(-c2c(-c3cc(N4CC(O)C4)nc(-c4cccnc4)n3)cnn2C)c1`: the IC50 in [1] was found to be 56.6 nM.

With `COc1cc(C)cc(-c2nn(C)cc2-c2cc(N3CC(O)C3)nc(-c3cccnc3)n2)c1`, the IC50 in [1] was determined as 108 nM.

As for `COc1cc(C)cc(-c2nn(C)cc2-c2cc(N3CCOCC3)nc(-c3cccnc3)n2)c1`, the IC50 in experiment [1] was found to be 59.1 nM.

`Cc1cc(O)cc(-c2nn(C)cc2-c2cc(N3CC(O)C3)nc(-c3cccnc3)n2)c1`: the IC50 in experiment [1] is 86.5 nM.

Usually IC50 stands for the midpoint of a concentration-inhibition curve.
